# Measurements published in the supplement of paper PMC9663587.
# Key:
# Olaparib/AZD2281 = compound: O=C(c1cc(Cc2n[nH]c(=O)c3ccccc23)ccc1F)N1CCN(C(=O)C2CC2)CC1 [Olaparib/AZD2281]
# Ipatasertib/GDC0068 = compound: CC(C)NC[C@@H](C(=O)N1CCN(c2ncnc3c2[C@H](C)C[C@H]3O)CC1)c1ccc(Cl)cc1 [Ipatasertib/GDC0068]
# BSJ-01-175 = compound: CN(C)C/C=C/C(=O)Nc1ccc(O[C@@H]2CCC[C@@H](Nc3ncc(Cl)c(-c4c[nH]c5ccccc45)n3)C2)cc1 [BSJ-01-175]
# Doxorubicin = compound: COc1cccc2c1C(=O)c1c(O)c3c(c(O)c1C2=O)C[C@@](O)(C(=O)CO)C[C@@H]3O[C@H]1C[C@H](N)[C@H](O)[C@H](C)O1 [Doxorubicin]
# Paclitaxel = compound: CC(=O)O[C@H]1C(=O)[C@@]2(C)[C@H]([C@H](OC(=O)c3ccccc3)[C@]3(O)C[C@H](OC(=O)[C@H](O)[C@@H](NC(=O)c4ccccc4)c4ccccc4)C(C)=C1C3(C)C)[C@]1(OC(C)=O)CO[C@@H]1C[C@@H]2O [Paclitaxel]
# ABT-737 = compound: CN(C)CC[C@H](CSc1ccccc1)Nc1ccc(S(=O)(=O)NC(=O)c2ccc(N3CCN(Cc4ccccc4-c4ccc(Cl)cc4)CC3)cc2)cc1[N+](=O)[O-] [ABT-737]
# Luminespib/NVP-AUY922 = compound: CCNC(=O)c1noc(-c2cc(C(C)C)c(O)cc2O)c1-c1ccc(CN2CCOCC2)cc1 [Luminespib/NVP-AUY922]
# Flavopiridol [1] = compound: T1, CN1CC[C@H](c2c(O)cc(O)c3c(=O)cc(-c4ccccc4Cl)oc23)[C@H](O)C1 [Flavopiridol]
# Taselisib/GDC0032 = compound: Cc1nc(-c2cn3c(n2)-c2ccc(-c4cnn(C(C)(C)C(N)=O)c4)cc2OCC3)n(C(C)C)n1 [Taselisib/GDC0032]
# YKL-5-124 = compound: C=CC(=O)Nc1ccc(C(=O)Nc2[nH]nc3c2CN(C(=O)N[C@H](CN(C)C)c2ccccc2)C3(C)C)cc1 [YKL-5-124]; experiment: GR value, 72 h; higher = faster growth (1 = untreated, <0 = killing);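 further: breast cancer and non-malignant breast epithelial lines, nine half-log doses, viable cells counted by Hoechst and LIVE/DEAD dye imaging versus time-zero plates and DMSO controls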
# BSJ-03-123 = compound: CC(=O)c1c(C)c2cnc(Nc3ccc(N4CCN(CCOCCOCCOCCNC(=O)COc5cccc6c5C(=O)N(C5CCC(=O)NC5=O)C6=O)CC4)cn3)nc2n(C2CCCC2)c1=O [BSJ-03-123]; experiment: as above
# [2] = compound: CCc1cnn2c(NCc3ccc[n+]([O-])c3)cc(N3CCCC[C@H]3CCO)nc12; experiment: as above
# THZ531 = compound: CN(C)C/C=C/C(=O)Nc1ccc(C(=O)N2CCC[C@@H](Nc3ncc(Cl)c(-c4c[nH]c5ccccc45)n3)C2)cc1 [THZ531]; experiment: as above
# LEE011/Ribociclib = compound: CN(C)C(=O)c1cc2cnc(Nc3ccc(N4CCNCC4)cn3)nc2n1C1CCCC1 [LEE011/Ribociclib]; experiment: as above
# Flavopiridol [3] = compound: T1, Flavopiridol; experiment: as above
# [4] = compound: CC(=O)c1c(C)c2cnc(Nc3ccc(N4CCNCC4)cn3)nc2n(C2CCCC2)c1=O; experiment: as above
# [5] = compound: CCN1CCN(Cc2ccc(Nc3ncc(F)c(-c4cc(F)c5nc(C)n(C(C)C)c5c4)n3)nc2)CC1; experiment: as above
# 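Wherever GR50, 72 h is given: breast cancer and non-malignant breast epithelial cell lines, Deep Dye Drop or Dye Drop imaging, nine half-log doses, GR normalized to time-zero plates and DMSO-only controls.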
cell line,measurement,setting,value
SKBR3,"GR50, 72 h",Olaparib/AZD2281,> 10 µM
same,"GR50, 72 h",Ipatasertib/GDC0068,3.32 µM
same,"GR50, 72 h",BSJ-01-175,0.00832 µM
same,"GR50, 72 h",Doxorubicin,0.00673 µM
same,"GR50, 72 h",Paclitaxel,0.00191 µM
same,"GR50, 72 h",ABT-737,> 10 µM
same,"GR50, 72 h",Luminespib/NVP-AUY922,0.00228 µM
same,"GR50, 72 h",Flavopiridol [1],0.132 µM
same,"GR50, 72 h",Taselisib/GDC0032,0.00617 µM
same,GR value,YKL-5-124; 0.001 µM,0.455 GR
same,GR value,YKL-5-124; 0.003162 µM,0.198 GR
same,GR value,YKL-5-124; 0.01 µM,0.164 GR
same,GR value,YKL-5-124; 0.03162 µM,0.137 GR
same,GR value,YKL-5-124; 0.1 µM,0.102 GR
same,GR value,YKL-5-124; 0.3162 µM,-0.123 GR
same,GR value,YKL-5-124; 1 µM,0.0239 GR
same,GR value,YKL-5-124; 3.162 µM,-0.0117 GR
same,GR value,YKL-5-124; 10 µM,-0.572 GR
same,GR value,BSJ-03-123; 0.001 µM,0.911 GR
same,GR value,BSJ-03-123; 0.003162 µM,0.855 GR
same,GR value,BSJ-03-123; 0.01 µM,0.825 GR
same,GR value,BSJ-03-123; 0.03162 µM,0.79 GR
same,GR value,BSJ-03-123; 0.1 µM,0.644 GR
same,GR value,BSJ-03-123; 0.3162 µM,0.75 GR
same,GR value,BSJ-03-123; 1 µM,0.506 GR
same,GR value,BSJ-03-123; 3.162 µM,0.514 GR
same,GR value,BSJ-03-123; 10 µM,-0.35 GR
same,GR value,[2]; 0.0001 µM,0.95 GR
same,GR value,[2]; 0.0003162 µM,0.921 GR
same,GR value,[2]; 0.001 µM,1.07 GR
same,GR value,[2]; 0.003162 µM,0.933 GR
same,GR value,[2]; 0.01 µM,0.0102 GR
same,GR value,[2]; 0.03162 µM,-0.581 GR
same,GR value,[2]; 0.1 µM,-0.6 GR
same,GR value,[2]; 0.3162 µM,-0.628 GR
same,GR value,[2]; 1 µM,-0.579 GR
same,GR value,THZ531; 0.0001 µM,1.03 GR
same,GR value,THZ531; 0.0003162 µM,0.963 GR
same,GR value,THZ531; 0.001 µM,0.975 GR
same,GR value,THZ531; 0.003162 µM,0.961 GR
same,GR value,THZ531; 0.01 µM,1.07 GR
same,GR value,THZ531; 0.03162 µM,0.411 GR
same,GR value,THZ531; 0.1 µM,-0.26 GR
same,GR value,THZ531; 0.3162 µM,-0.481 GR
same,GR value,THZ531; 1 µM,-0.584 GR
same,GR value,LEE011/Ribociclib; 0.001 µM,0.897 GR
same,GR value,LEE011/Ribociclib; 0.003162 µM,0.728 GR
same,GR value,LEE011/Ribociclib; 0.01 µM,0.774 GR
same,GR value,LEE011/Ribociclib; 0.03162 µM,0.766 GR
same,GR value,LEE011/Ribociclib; 0.1 µM,0.776 GR
same,GR value,LEE011/Ribociclib; 0.3162 µM,0.471 GR
same,GR value,LEE011/Ribociclib; 1 µM,0.582 GR
same,GR value,LEE011/Ribociclib; 3.162 µM,0.429 GR
same,GR value,LEE011/Ribociclib; 10 µM,0.586 GR
same,GR value,Flavopiridol [3]; 0.0001 µM,1.04 GR
same,GR value,Flavopiridol [3]; 0.0003162 µM,0.989 GR
same,GR value,Flavopiridol [3]; 0.001 µM,0.844 GR
same,GR value,Flavopiridol [3]; 0.003162 µM,0.823 GR
same,GR value,Flavopiridol [3]; 0.01 µM,0.823 GR
same,GR value,Flavopiridol [3]; 0.03162 µM,0.9 GR
same,GR value,Flavopiridol [3]; 0.1 µM,0.641 GR
same,GR value,Flavopiridol [3]; 0.3162 µM,-0.0615 GR
same,GR value,Flavopiridol [3]; 1 µM,-0.656 GR
same,GR value,[4]; 0.0003162 µM,1.05 GR
same,GR value,[4]; 0.001 µM,1.03 GR
same,GR value,[4]; 0.003162 µM,0.946 GR
same,GR value,[4]; 0.01 µM,0.845 GR
same,GR value,[4]; 0.03162 µM,0.697 GR
same,GR value,[4]; 0.1 µM,0.591 GR
same,GR value,[4]; 0.3162 µM,0.434 GR
same,GR value,[4]; 1 µM,0.48 GR
same,GR value,[4]; 3.162 µM,0.334 GR
same,GR value,[5]; 0.001 µM,0.874 GR
same,GR value,[5]; 0.003162 µM,0.866 GR
same,GR value,[5]; 0.01 µM,0.623 GR
same,GR value,[5]; 0.03162 µM,0.491 GR
same,GR value,[5]; 0.1 µM,0.402 GR
same,GR value,[5]; 0.3162 µM,0.337 GR
same,GR value,[5]; 1 µM,0.24 GR
same,GR value,[5]; 3.162 µM,0.27 GR
same,GR value,[5]; 10 µM,0.151 GR
MDAMB330,"GR50, 72 h",Olaparib/AZD2281,9.31 µM
same,"GR50, 72 h",Ipatasertib/GDC0068,0.38 µM
same,"GR50, 72 h",BSJ-01-175,0.00635 µM
same,"GR50, 72 h",Doxorubicin,0.00368 µM
same,"GR50, 72 h",Paclitaxel,0.00423 µM
same,"GR50, 72 h",ABT-737,2.07 µM
same,"GR50, 72 h",Luminespib/NVP-AUY922,0.00239 µM
same,"GR50, 72 h",Flavopiridol [1],0.232 µM
same,"GR50, 72 h",Taselisib/GDC0032,0.00814 µM
same,GR value,YKL-5-124; 0.001 µM,0.265 GR
same,GR value,YKL-5-124; 0.003162 µM,0.245 GR
same,GR value,YKL-5-124; 0.01 µM,0.149 GR
same,GR value,YKL-5-124; 0.03162 µM,0.177 GR
same,GR value,YKL-5-124; 0.1 µM,0.133 GR
same,GR value,YKL-5-124; 0.3162 µM,-0.0197 GR
same,GR value,YKL-5-124; 1 µM,0.0836 GR
same,GR value,YKL-5-124; 3.162 µM,0.0626 GR
same,GR value,YKL-5-124; 10 µM,-0.732 GR
same,GR value,BSJ-03-123; 0.001 µM,0.928 GR
same,GR value,BSJ-03-123; 0.003162 µM,0.827 GR
same,GR value,BSJ-03-123; 0.01 µM,0.847 GR
same,GR value,BSJ-03-123; 0.03162 µM,0.727 GR
same,GR value,BSJ-03-123; 0.1 µM,0.637 GR
same,GR value,BSJ-03-123; 0.3162 µM,0.403 GR
same,GR value,BSJ-03-123; 1 µM,0.337 GR
same,GR value,BSJ-03-123; 3.162 µM,0.277 GR
same,GR value,BSJ-03-123; 10 µM,-0.101 GR
same,GR value,[2]; 0.0001 µM,1.02 GR
same,GR value,[2]; 0.0003162 µM,1.09 GR
same,GR value,[2]; 0.001 µM,1.09 GR
same,GR value,[2]; 0.003162 µM,1.08 GR
same,GR value,[2]; 0.01 µM,1.02 GR
same,GR value,[2]; 0.03162 µM,-0.513 GR
same,GR value,THZ531; 0.0001 µM,1.12 GR
same,GR value,THZ531; 0.0003162 µM,0.83 GR
same,GR value,THZ531; 0.001 µM,0.891 GR
same,GR value,THZ531; 0.003162 µM,0.971 GR
same,GR value,THZ531; 0.01 µM,0.805 GR
same,GR value,THZ531; 0.03162 µM,0.214 GR
same,GR value,THZ531; 0.1 µM,-0.965 GR
same,GR value,THZ531; 0.3162 µM,-0.962 GR
same,GR value,THZ531; 1 µM,-0.968 GR
same,GR value,LEE011/Ribociclib; 0.001 µM,0.451 GR
same,GR value,LEE011/Ribociclib; 0.003162 µM,0.229 GR
same,GR value,LEE011/Ribociclib; 0.01 µM,0.361 GR
same,GR value,LEE011/Ribociclib; 0.03162 µM,0.14 GR
same,GR value,LEE011/Ribociclib; 0.1 µM,0.106 GR
same,GR value,LEE011/Ribociclib; 0.3162 µM,-0.116 GR
same,GR value,LEE011/Ribociclib; 1 µM,0.15 GR
same,GR value,LEE011/Ribociclib; 3.162 µM,0.292 GR
same,GR value,LEE011/Ribociclib; 10 µM,0.293 GR
same,GR value,Flavopiridol [3]; 0.0001 µM,0.986 GR
same,GR value,Flavopiridol [3]; 0.0003162 µM,0.935 GR
same,GR value,Flavopiridol [3]; 0.001 µM,1.03 GR
same,GR value,Flavopiridol [3]; 0.003162 µM,1.01 GR
same,GR value,Flavopiridol [3]; 0.01 µM,0.911 GR
same,GR value,Flavopiridol [3]; 0.03162 µM,0.85 GR
same,GR value,Flavopiridol [3]; 0.1 µM,0.735 GR
same,GR value,Flavopiridol [3]; 0.3162 µM,0.285 GR
same,GR value,Flavopiridol [3]; 1 µM,-0.892 GR
same,GR value,[4]; 0.0003162 µM,1.06 GR
same,GR value,[4]; 0.001 µM,0.943 GR
same,GR value,[4]; 0.003162 µM,0.931 GR
same,GR value,[4]; 0.01 µM,0.747 GR
same,GR value,[4]; 0.03162 µM,0.376 GR
same,GR value,[4]; 0.1 µM,0.224 GR
same,GR value,[4]; 0.3162 µM,0.17 GR
same,GR value,[4]; 1 µM,0.228 GR
same,GR value,[4]; 3.162 µM,0.213 GR
same,GR value,[5]; 0.001 µM,0.797 GR
same,GR value,[5]; 0.003162 µM,0.615 GR
same,GR value,[5]; 0.01 µM,0.306 GR
same,GR value,[5]; 0.03162 µM,0.178 GR
same,GR value,[5]; 0.1 µM,0.197 GR
same,GR value,[5]; 0.3162 µM,0.241 GR
same,GR value,[5]; 1 µM,0.202 GR
same,GR value,[5]; 3.162 µM,0.199 GR
same,GR value,[5]; 10 µM,-0.0587 GR
